Assay results reported in PMC12655351, “Synthesis and Anticancer Activity Evaluation of New 5-((5-Nitrofuran-2-yl)allylidene)-2-thioxo-4-thiazolidinones” (Pharmaceuticals, 2025).

Legend:
NCI-H522 = test: NCI-60 SRB screen; details: for GI50 / CC50: Homo sapiens; for GI50 / CC50 / TGI: NCI-H522, 48 h; for CC50: read-out: LC50, NCI-H522, 48 h
HS 578T [1] = details: 48 h
SNB-75 = test: NCI-60 SRB screen; details: SNB-75, 48 h; for GI50 / CC50: Homo sapiens; for CC50: read-out: LC50, SNB-75, 48 h
[2] = tested on: Non-small cell lung cancer; test: cells; details: Homo sapiens; for GI50: read-out: MG_MID GI50; for CC50: read-out: MG_MID LC50
CAKI-1 = test: cells; details: Homo sapiens, CAKI-1, 48 h
RPMI-8226 = details: RPMI-8226, 48 h
SF-268 = test: cells; details: Homo sapiens, SF-268, 48 h; for CC50: read-out: LC50, SF-268, 48 h
HS 578T [3] = test: cells; details: Homo sapiens, 48 h; for GI50: HS 578T; for CC50: read-out: LC50
DU-145 = test: cells; details: Homo sapiens, DU-145, 48 h; for CC50: read-out: LC50, DU-145, 48 h
786-0 = details: 786-0, 48 h
Ovarian cancer = Ovarian cancer subpanel
BT-549 [4] = test: cells; details: Homo sapiens, BT-549, 48 h; for CC50: read-out: LC50, BT-549, 48 h
BT-549 [5] = details: for TGI: BT-549, 48 h
NCI-H23 = details: NCI-H23, 48 h
SK-MEL-2 = test: NCI-60 SRB screen; details: SK-MEL-2, 48 h; for GI50 / CC50: Homo sapiens; for CC50: read-out: LC50, SK-MEL-2, 48 h
SNB-19 = test: NCI-60 SRB screen; details: for GI50 / CC50: Homo sapiens; for GI50 / CC50 / TGI: SNB-19, 48 h; for CC50: read-out: LC50, SNB-19, 48 h
COLO 205 = details: COLO 205, 48 h
HCT-116 = test: cells; details: Homo sapiens, HCT-116, 48 h
OVCAR-8 = test: cells; details: Homo sapiens, OVCAR-8, 48 h; for CC50: read-out: LC50, OVCAR-8, 48 h
UACC-62 = test: NCI-60 SRB screen; details: UACC-62, 48 h; for GI50 / CC50: Homo sapiens; for CC50: read-out: LC50, UACC-62, 48 h
ACHN = test: NCI-60 SRB screen; details: 48 h; for GI50 / CC50: Homo sapiens; for CC50: read-out: LC50, ACHN, 48 h
RXF 393 = test: NCI-60 SRB screen; details: RXF 393, 48 h; for GI50: Homo sapiens

SMILES: CCCC(C(=O)O)N1C(=O)/C(=C/C=C/c2ccc([N+](=O)[O-])o2)SC1=S (stereo not shown) [4b, 2-((Z)-5-((E)-3-(5-Nitrofuran-2-yl)allylidene)-4-oxo-2-thioxothiazolidin-3-yl)pentanoic acid]
- GI50 (NCI-H522): 1.7 µM
- CC50 (NCI-H522): 6.48 µM
- TGI (NCI-H522): 3.32 µM
- TGI (HS 578T [1]): 10.1 µM
- GI50 (SNB-75): 1.53 µM
- CC50 (SNB-75): 6.99 µM
- TGI (SNB-75): 3.27 µM
- GI50 [2]: 2.37 µM
- CC50 [2]: 29.3 µM
- GI50 (CAKI-1): 1.75 µM
- TGI (RPMI-8226): 5.11 µM
- GI50 (SF-268): 2.04 µM
- CC50 (SF-268): 9.72 µM
- GI50 (HS 578T [3]): 1.87 µM
- CC50 (HS 578T [3]): > 100 µM
- GI50 (DU-145): 2.42 µM
- CC50 (DU-145): 22.8 µM
- TGI (786-0): 12.6 µM
- MG_MID TGI (Ovarian cancer): 8.71 µM
- GI50 (BT-549 [4]): 1.67 µM
- CC50 (BT-549 [4]): 6.77 µM
- TGI (BT-549 [5]): 3.37 µM
- TGI (NCI-H23): 4.11 µM
- GI50 (SK-MEL-2): 1.53 µM
- CC50 (SK-MEL-2): 5.89 µM
- TGI (SK-MEL-2): 3.00 µM
- GI50 (SNB-19): 2.01 µM
- CC50 (SNB-19): 8.45 µM
- TGI (SNB-19): 4.12 µM
- TGI (COLO 205): 3.60 µM
- GI50 (HCT-116): 1.82 µM
- GI50 (OVCAR-8): 1.98 µM
- CC50 (OVCAR-8): 13 µM
- GI50 (UACC-62): 1.5 µM
- CC50 (UACC-62): 5.9 µM
- TGI (UACC-62): 2.98 µM
- TGI (ACHN): 3.44 µM
- GI50 (ACHN): 1.72 µM
- CC50 (ACHN): 6.87 µM
- GI50 (RXF 393): 1.89 µM
- TGI (RXF 393): 3.40 µM

SMILES: O=C(O)C(c1ccccc1)N1C(=O)/C(=C/C=C/c2ccc([N+](=O)[O-])o2)SC1=S (stereo not shown) [9b, 2-((Z)-5-((E)-3-(5-Nitrofuran-2-yl)allylidene)-4-oxo-2-thioxothiazolidin-3-yl)-2-phenylacetic acid]
- GI50 (NCI-H522): 4.09 µM
- CC50 (NCI-H522): 64.6 µM
- growth GP (NCI-H522; NCI-H522, 10 μM, 48 h): -88.21%
- TGI (NCI-H522): 19.1 µM
- TGI (HS 578T [1]): 35.0 µM
- GI50 (SNB-75): 2.11 µM
- CC50 (SNB-75): 27.9 µM
- TGI (SNB-75): 7.39 µM
- GI50 [2]: 11.1 µM
- CC50 [2]: 73.2 µM
- GI50 (CAKI-1): 6.27 µM
- TGI (RPMI-8226): 12.7 µM
- GI50 (SF-268): 10.8 µM
- CC50 (SF-268): 52.2 µM
- GI50 (HS 578T [3]): 4.59 µM
- CC50 (HS 578T [3]): > 100 µM
- GI50 (DU-145): 11.5 µM
- CC50 (DU-145): 48.8 µM
- TGI (786-0): 12.8 µM
- MG_MID TGI (Ovarian cancer): 27.9 µM
- GI50 (BT-549 [4]): 2.46 µM
- CC50 (BT-549 [4]): 35.7 µM
- TGI (BT-549 [5]): 7.81 µM
- TGI (NCI-H23): 31.0 µM
- GI50 (SK-MEL-2): 5.64 µM
- CC50 (SK-MEL-2): 49.2 µM
- TGI (SK-MEL-2): 19.7 µM
- GI50 (SNB-19): 13.5 µM
- CC50 (SNB-19): 51.4 µM
- TGI (SNB-19): 26.3 µM
- TGI (COLO 205): 22.2 µM
- GI50 (HCT-116): 2.68 µM
- CC50 (HCT-116; read-out: LC50, HCT-116, 48 h): > 100 µM
- GI50 (OVCAR-8): 11.1 µM
- CC50 (OVCAR-8): 58.5 µM
- GI50 (UACC-62): 2.69 µM
- CC50 (UACC-62): 35.3 µM
- TGI (UACC-62): 11.1 µM
- TGI (ACHN): 21.4 µM
- GI50 (ACHN): 9.25 µM
- CC50 (ACHN): 47.2 µM
- GI50 (RXF 393): 4.01 µM
- TGI (RXF 393): 14.6 µM

SMILES: CCCCC(C(=O)O)N1C(=O)/C(=C/C=C/c2ccc([N+](=O)[O-])o2)SC1=S (stereo not shown) [6b, 2-((Z)-5-((E)-3-(5-nitrofuran-2-yl)allylidene)-4-oxo-2-thioxothiazolidin-3-yl)hexanoic acid]
- GI50 (NCI-H522): 1.74 µM
- CC50 (NCI-H522): 6.78 µM
- TGI (NCI-H522): 3.43 µM
- TGI (HS 578T [1]): 27.4 µM
- GI50 (SNB-75): 1.77 µM
- CC50 (SNB-75): 8.06 µM
- TGI (SNB-75): 3.77 µM
- GI50 [2]: 2.43 µM
- CC50 [2]: 38.7 µM
- GI50 (CAKI-1): 1.67 µM
- TGI (RPMI-8226): 6.09 µM
- GI50 (SF-268): 2.15 µM
- CC50 (SF-268): 16.8 µM
- GI50 (HS 578T [3]): 3.38 µM
- CC50 (HS 578T [3]): > 100 µM
- GI50 (DU-145): 3.35 µM
- CC50 (DU-145): 32.9 µM
- TGI (786-0): 9.30 µM
- MG_MID TGI (Ovarian cancer): 9.10 µM
- GI50 (BT-549 [4]): 1.49 µM
- CC50 (BT-549 [4]): 6.55 µM
- TGI (BT-549 [5]): 3.12 µM
- TGI (NCI-H23): 3.51 µM
- GI50 (SK-MEL-2): 1.7 µM
- CC50 (SK-MEL-2): 6.12 µM
- TGI (SK-MEL-2): 3.22 µM
- GI50 (SNB-19): 2.1 µM
- CC50 (SNB-19): 13.5 µM
- TGI (SNB-19): 4.88 µM
- TGI (COLO 205): 3.66 µM
- GI50 (HCT-116): 1.73 µM
- GI50 (OVCAR-8): 2.12 µM
- CC50 (OVCAR-8): 13.8 µM
- GI50 (UACC-62): 1.38 µM
- CC50 (UACC-62): 5.61 µM
- TGI (UACC-62): 2.78 µM
- TGI (ACHN): 3.48 µM
- GI50 (ACHN): 1.88 µM
- CC50 (ACHN): 6.47 µM
- GI50 (RXF 393): 1.69 µM
- TGI (RXF 393): 3.20 µM

SMILES: CC(C)C(C(=O)O)N1C(=O)/C(=C/C=C/c2ccc([N+](=O)[O-])o2)SC1=S (stereo not shown) [5b, 3-Methyl-2-((Z)-5-((E)-3-(5-nitrofuran-2-yl)allylidene)-4-oxo-2-thioxothiazolidin-3-yl)butanoic acid]
- GI50 (NCI-H522): 1.12 µM
- CC50 (NCI-H522): 5.69 µM
- TGI (NCI-H522): 2.53 µM
- TGI (HS 578T [1]): 7.56 µM
- GI50 (SNB-75): 0.68 µM
- CC50 (SNB-75): 4.89 µM
- TGI (SNB-75): 1.98 µM
- GI50 [2]: 1.8 µM
- CC50 [2]: 20.1 µM
- GI50 (CAKI-1): 1.17 µM
- TGI (RPMI-8226): 1.49 µM
- GI50 (SF-268): 1.61 µM
- CC50 (SF-268): 7.92 µM
- GI50 (HS 578T [3]): 2.09 µM
- CC50 (HS 578T [3]): > 100 µM
- GI50 (DU-145): 1.43 µM
- CC50 (DU-145): 5.56 µM
- TGI (786-0): 3.70 µM
- MG_MID TGI (Ovarian cancer): 5.19 µM
- GI50 (BT-549 [4]): 0.75 µM
- CC50 (BT-549 [4]): 5.13 µM
- growth GP (BT-549 [5]; BT-549, 10 μM, 48 h): -98.16%
- TGI (BT-549 [5]): 2.14 µM
- TGI (NCI-H23): 3.41 µM
- GI50 (SK-MEL-2): 1.52 µM
- CC50 (SK-MEL-2): 6.02 µM
- TGI (SK-MEL-2): 3.03 µM
- GI50 (SNB-19): 1.64 µM
- CC50 (SNB-19): 5.53 µM
- growth GP (SNB-19; SNB-19, 10 μM, 48 h): -97.77%
- TGI (SNB-19): 3.01 µM
- TGI (COLO 205): 2.79 µM
- GI50 (HCT-116): 0.32 µM
- GI50 (OVCAR-8): 1.49 µM
- CC50 (OVCAR-8): 25.1 µM
- GI50 (UACC-62): 0.78 µM
- CC50 (UACC-62): 4.9 µM
- TGI (UACC-62): 2.16 µM
- growth GP (ACHN; 10 μM): -99.54%
- TGI (ACHN): 2.64 µM
- GI50 (ACHN): 1.35 µM
- CC50 (ACHN): 5.19 µM
- GI50 (RXF 393): 1.74 µM
- TGI (RXF 393): 3.27 µM
